Counter-ions that a name gives are not always drawn. Like-named read-outs stand apart in the source and are kept apart here.
Experiments:
Assay type in all cases: cell-based, Plasmodium falciparum
[1] = test system: P. falciparum K1CB1 (double mutant, C59R+S108N); experiment: In vitro anti-Plasmodial activity against K1CB1
Method: (§1) It is an object of the invention to provide anti-folate antimalarials with dual-binding modes, and pharmaceutically acceptable salts thereof, for substantially inhibiting dihydrofolate reductase enzymes. Enzymes, comprising dihydrofolate reductase of Plasmodium falciparum, wild-type, double (C59R+S108N), triple (N51+C59R+S108N, C59R+S108N+1164L), and quadruple (N51+C59R+S108N+I164L) mutants were prepared. The inhibition constants (Ki) of the enzymes with the invented compounds were investigated using a standard method. In vitro antimalarial activity (IC50) with malaria parasites carrying Tm4/8.2 (wild type), K1CB1 (double mutant, C59R+S108N), W2 (triple mutant N51I+C59R+S 108N), Cs1-2 (triple mutant, C59R+S108N+I164L), and V1/S (quadruple mutant, N51I+C59R+S108N+I164L) were also investigated using a standard method.

[2] = test system: P. falciparum V1/S (quadruple mutant, N51I+C59R+S108N+I164L); experiment: In vitro anti-Plasmodial activity against V1/S
Method: as §1

[3] = test system: P. falciparum Cs1-2 (triple mutant, C59R+S108N+I164L); experiment: In vitro anti-Plasmodial activity against Cs1-2
Method: as §1

[4] = test system: P. falciparum W2 (triple mutant N51I+C59R+S108N); experiment: In vitro anti-Plasmodial activity against W2
Method: as §1

[5] = test system: P. falciparum Tm4/8.2 (wild type); experiment: In vitro anti-Plasmodial activity against Tm4/8.2; settings: P. falciparum Tm4/8.2, wild type DHFR
Method: as §1

[6] = Plasmodium falciparum, read-out: IC50 K1CB1, P. falciparum K1CB1, double mutant
[7] = Plasmodium falciparum, read-out: IC50 V1/S, P. falciparum V1/S, quadruple mutant
[8] = Plasmodium falciparum, read-out: IC50 Cs1-2, P. falciparum Cs1-2, triple mutant
[9] = Plasmodium falciparum, W2, read-out: IC50 W2, P. falciparum W2, triple mutant

| Compound | IC50 [1, 6] [nM] | IC50 ([2]; read-out: IC50 V1/S, P. falciparum V1/S, quadruple mutant) [nM] | IC50 ([3]; read-out: IC50 Cs1-2, P. falciparum Cs1-2, triple mutant) [nM] | IC50 ([4]; read-out: IC50 W2, P. falciparum W2, triple mutant) [nM] | IC50 ([5]; Plasmodium falciparum) [nM] | IC50 [2, 7] [nM] | IC50 [3, 8] [nM] | IC50 [4, 9] [nM] | IC50 ([1]; read-out: IC50 K1CB1, P. falciparum K1CB1, double mutant, dihydrochloride) [nM] | IC50 ([2]; read-out: IC50 V1/S, P. falciparum V1/S, quadruple mutant, dihydrochloride) [nM] | IC50 ([3]; read-out: IC50 Cs1-2, P. falciparum Cs1-2, triple mutant, dihydrochloride) [nM] | IC50 ([4]; read-out: IC50 W2, P. falciparum W2, triple mutant, dihydrochloride) [nM] | IC50 ([5]; dihydrochloride) [nM] |
| --- | --- | --- | --- | --- | --- | --- | --- | --- | --- | --- | --- | --- | --- |
| CCc1nc(N)nc(N)c1OCCCOc1ccc(-c2c(N)nc(N)nc2CC)cc1 [Compound B, 5-(4′-(3″-(2,4-diamino-6-ethylpyrimidin-5-yloxy)propoxy)phenyl)-6-ethylpyrimidine-2,4-diamine] | > 1000 | > 1000 | > 1000 | > 1000 | 69 ± 10 | – | – | – | – | – | – | – | – |
| CCc1nc(N)nc(N)c1-c1ccc(OCCCOc2ccc(-c3c(N)nc(N)nc3CC)cc2)cc1 [Compound E, 5-(4′-3″-(4″′-(2,4-diamino-6-ethylpyrimidin-5-yl)phenoxy)propoxy)phenyl)-6-ethylpyrimidine-2,4-diamine dihydrochloride] | 330 ± 40 | – | – | – | 35 | 330 ± 20 | 310 ± 20 | 280 ± 20 | – | – | – | – | – |
| CCc1nc(N)nc(N)c1-c1ccc(Cl)cc1 [Pyr, Pyrimethamine, reference compound] | 27000 ± 3330 | – | – | – | 66 ± 30 | > 100000 | 37000 ± 5980 | 39000 ± 5420 | – | – | – | – | – |
| CCc1nc(N)nc(N)c1OCCCOc1ccc(-c2c(N)nc(N)nc2CC)cc1 [Compound D, 5-(4′-(3″-(2,4-diamino-6-ethylpyrimidin-5-yloxy)propoxy)phenyl)-6-ethylpyrimidine-2,4-diamine dihydrochloride] | – | – | – | – | – | – | – | – | 1840 ± 310 | 4400 ± 710 | 3950 ± 360 | 2380 ± 110 | 63 ± 10 |
| CCc1nc(N)nc(N)c1OCCCOc1cccc(-c2c(N)nc(N)nc2CC)c1 [Compound A, 5-(3′-(3″-(2,4-diamino-6-ethylpyrimidin-5-yloxy)propoxy)phenyl)-6-ethylpyrimidine-2,4-diamine] | 220 ± 60 | – | – | – | 290 ± 50 | 1720 ± 690 | 510 ± 80 | 250 ± 80 | – | – | – | – | – |

Source: patent US9000003B2, “Anti-folate antimalarials with dual-binding modes and their preparation” (priority 2011, dated 2015)
